# Experimental data from patent US20240418701A1, “SINGLE MOLECULE IDEN[…] A REACTIVE HETERO-NANOPORE” (priority 2021, published 2024).
# Values joined by “and” are separate entries in the source; they are usually repeats but may differ in a detail not shown here. Equal values may be shown once.
# What was measured:
# [1] = target: T1, octameric M2 MspA-D16H6 (Mycolicibacterium smegmatis, UniProt A0QR29, D117N/D118N/D120N/D145R/D161R/E166K); test: L-Sorbose sensing by octameric M2 MspA-D16H6 (control without PBA); format: binding, Mycobacterium smegmatis; conditions: L-Sorbose 50 mM in cis, +160 mV
# T1 construct: D16 (16 consecutive aspartic acids) (C); H6 (hexa-histidine) (C); made in house; host or cells: E. coli BL21 (DE3) pLysS, pET-30a(+)
# T1 sequence (A0QR29 other isoform, or with tags, fused parts or gaps D117N/D118N/D120N/D145R/D161R/E166K): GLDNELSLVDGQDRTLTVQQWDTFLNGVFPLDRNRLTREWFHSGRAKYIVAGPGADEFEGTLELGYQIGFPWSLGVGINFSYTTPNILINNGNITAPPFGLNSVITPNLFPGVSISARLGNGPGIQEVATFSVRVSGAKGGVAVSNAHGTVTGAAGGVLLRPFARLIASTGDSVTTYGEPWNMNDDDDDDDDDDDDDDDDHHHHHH
# Method: FIG. 11: L-Sorbose sensing by an octameric M2 MspA-D16H6. L-Sorbose sensing was performed with an octameric M2 MspA-D16H6 in a 1.5 M KCl, 10 mM MOPS, pH7.0 buffer. A +160 mV bias was continually applied.
# L-Sorbose is a monosaccharide ketose. It exists in all living species, ranging from bacteria to human^50. The commercial production of vitamin C (ascorbic acid) often begins with L-Sorbose^51. To further verify the existence of a PBA in the lumen of the pore, MspA-PBA was used to sense L-Sorbose. The measurement was performed with a single MspA-PBA and a 1.5 M KCl, 10 mM MOPS, pH 7.0 buffer with the continuous application of a +160 m V bias. The addition of L-Sorbose to cis to a 10 mM final concentration resulted immediately in the consecutive appearance of long residing resistive pulse events (FIGS. 1d-1f, Supplementary Video 1). […] In this way, it was confirmed that the introduction of a PBA to the pore lumen is critical for the generation of saccharide sensing events.
# The measurement device is composed of two custom-made polyformaldehyde chambers separated by a ˜20 μm-thick Teflon film with a drilled aperture (˜100 μm in diameter). Before the measurement, the aperture was first treated with 0.5% (v/v) hexadecane in pentane and set for evaporation of the pentane. […] All events were detected by the “single channel research” function in Clampfit 10.7. […]
# [2] = target: T2, MspA-PBA (phenylboronic acid modified hetero-octameric (N90C)1(M2)7 MspA) (Mycolicibacterium smegmatis, UniProt A0QR29, D117C/D118N/D120N/D145R/D161R/E166K); test: Single channel recording of L-Sorbose binding to MspA-PBA nanopore; set-up: species or system Mycobacterium smegmatis; conditions: for 1/τoff Mean / 1/τon Mean / Amplitude of L-Sorbose events, Current, Mean: N=3
# T2 construct: H6 (hexa-histidine) (C); 3-(maleimide) phenylboronic acid (MPBA) adduct on the thiol of Cys90; made in house; host or cells: E. coli BL21 (DE3) pLysS, co-expression from pETDuet-1
# [3] = L-Sorbose 400 μM in cis, +160 mV
# [4] = L-Sorbose 800 μM in cis, +160 mV
# [5] = L-Sorbose 1200 μM in cis, +160 mV
# [6] = L-Sorbose 1600 μM in cis, +160 mV
# [7] = L-Sorbose 2000 μM in cis, +160 mV
compound,measurement,setting,value
"O=C(CO)[C@@H](O)[C@H](O)[C@@H](O)CO [L-Sorbose, L-(−)-Sorbose]",resistive pulse events with M2 MspA,[1],failed to cause any resistive pulse events
same,"Amplitude of L-Sorbose events, Current, Pore1","[2]; 40 mV, L-Sorbose 5 mM in cis",29.3 ± 0.0005 pA
same,"Amplitude of L-Sorbose events, Current, Pore2","[2]; 40 mV, L-Sorbose 5 mM in cis",29.05 ± 0.0005 pA
same,"Amplitude of L-Sorbose events, Current, Pore3","[2]; 40 mV, L-Sorbose 5 mM in cis",29.2 ± 0.002 pA
same,1/τoff Mean,"[2]; 40 mV, L-Sorbose 5 mM in cis",5.06E−04 ms^−1
same,1/τon Mean,"[2]; 40 mV, L-Sorbose 5 mM in cis",7.9E−04 ms^−1
same,"Amplitude of L-Sorbose events, Current, Mean","[2]; 40 mV, L-Sorbose 5 mM in cis",29.2 pA
same,"Amplitude of L-Sorbose events, Current, Pore1","[2]; 70 mV, L-Sorbose 5 mM in cis",54.5 ± 0.010 pA
same,"Amplitude of L-Sorbose events, Current, Pore2","[2]; 70 mV, L-Sorbose 5 mM in cis",52.7 ± 0.0008 pA
same,"Amplitude of L-Sorbose events, Current, Pore3","[2]; 70 mV, L-Sorbose 5 mM in cis",52.5 ± 0.0008 pA
same,1/τoff Mean,"[2]; 70 mV, L-Sorbose 5 mM in cis",4.3E−04 ms^−1
same,1/τon Mean,"[2]; 70 mV, L-Sorbose 5 mM in cis",7.4E−04 ms^−1
same,"Amplitude of L-Sorbose events, Current, Mean","[2]; 70 mV, L-Sorbose 5 mM in cis",53.08 pA
same,"Amplitude of L-Sorbose events, Current, Pore1","[2]; 100 mV, L-Sorbose 5 mM in cis",74.6 ± 0.002 pA
same,"Amplitude of L-Sorbose events, Current, Pore2","[2]; 100 mV, L-Sorbose 5 mM in cis",73.2 ± 0.009 pA
same,"Amplitude of L-Sorbose events, Current, Pore3","[2]; 100 mV, L-Sorbose 5 mM in cis",73.3 ± 0.002 pA
same,1/τoff Mean,"[2]; 100 mV, L-Sorbose 5 mM in cis",4.04E−04 ms^−1
same,1/τon Mean,"[2]; 100 mV, L-Sorbose 5 mM in cis",8.7E−04 ms^−1
same,"Amplitude of L-Sorbose events, Current, Mean","[2]; 100 mV, L-Sorbose 5 mM in cis",73.7 pA
same,"Amplitude of L-Sorbose events, Current, Pore1","[2]; 130 mV, L-Sorbose 5 mM in cis",91.6 ± 0.003 pA
same,"Amplitude of L-Sorbose events, Current, Pore2","[2]; 130 mV, L-Sorbose 5 mM in cis",90.3 ± 0.004 pA
same,"Amplitude of L-Sorbose events, Current, Pore3","[2]; 130 mV, L-Sorbose 5 mM in cis",90.3 ± 0.004 pA
same,1/τoff Mean,"[2]; 130 mV, L-Sorbose 5 mM in cis",3.8E−04 ms^−1
same,1/τon Mean,"[2]; 130 mV, L-Sorbose 5 mM in cis",8.4E−04 ms^−1
same,"Amplitude of L-Sorbose events, Current, Mean","[2]; 130 mV, L-Sorbose 5 mM in cis",90.8 pA
same,"Amplitude of L-Sorbose events, Current, Pore1","[2]; 160 mV, L-Sorbose 5 mM in cis",107.7 ± 0.005 pA
same,"Amplitude of L-Sorbose events, Current, Pore2","[2]; 160 mV, L-Sorbose 5 mM in cis",104.9 ± 0.006 pA
same,"Amplitude of L-Sorbose events, Current, Pore3","[2]; 160 mV, L-Sorbose 5 mM in cis",105.3 ± 0.006 pA
same,1/τoff Mean,"[2]; 160 mV, L-Sorbose 5 mM in cis",2.9E−04 ms^−1
same,1/τon Mean,"[2]; 160 mV, L-Sorbose 5 mM in cis",8.5E−04 ms^−1
same,"Amplitude of L-Sorbose events, Current, Mean","[2]; 160 mV, L-Sorbose 5 mM in cis",105.9 pA
same,"Amplitude of L-Sorbose events, Current, Pore1","[2]; 190 mV, L-Sorbose 5 mM in cis",122.9 ± 0.007 pA
same,"Amplitude of L-Sorbose events, Current, Pore2","[2]; 190 mV, L-Sorbose 5 mM in cis",116.7 ± 0.008 pA
same,"Amplitude of L-Sorbose events, Current, Pore3","[2]; 190 mV, L-Sorbose 5 mM in cis",120.7 ± 0.010 pA
same,1/τoff Mean,"[2]; 190 mV, L-Sorbose 5 mM in cis",2.9E−04 ms^−1
same,1/τon Mean,"[2]; 190 mV, L-Sorbose 5 mM in cis",8.3E−04 ms^−1
same,"Amplitude of L-Sorbose events, Current, Mean","[2]; 190 mV, L-Sorbose 5 mM in cis",120.13 pA
same,"Amplitude of L-Sorbose events, Current, Pore1","[2]; 220 mV, L-Sorbose 5 mM in cis",143.6 ± 0.02 pA
same,"Amplitude of L-Sorbose events, Current, Pore2","[2]; 220 mV, L-Sorbose 5 mM in cis",132.9 ± 0.02 pA
same,"Amplitude of L-Sorbose events, Current, Pore3","[2]; 220 mV, L-Sorbose 5 mM in cis",137.2 ± 0.013 pA
same,1/τoff Mean,"[2]; 220 mV, L-Sorbose 5 mM in cis",3.4E−04 ms^−1
same,1/τon Mean,"[2]; 220 mV, L-Sorbose 5 mM in cis",8.07E−04 ms^−1
same,"Amplitude of L-Sorbose events, Current, Mean","[2]; 220 mV, L-Sorbose 5 mM in cis",137.9 pA
same,blockage amplitude (ΔI) / current drop of L-Sorbose sensing events,"[2]; +160 mV, L-Sorbose 10 mM in cis",~100 pA and ~102 pA
same,1/τoff Mean,[2]; [3],2.9E−04 ms^−1
same,1/τon Mean,[2]; [3],5.10E−05 ms^−1
same,1/τoff Mean,[2]; [4],2.9E−04 ms^−1
same,1/τon Mean,[2]; [4],1.03E−04 ms^−1
same,1/τoff Mean,[2]; [5],3.08E−04 ms^−1
same,1/τon Mean,[2]; [5],1.7E−04 ms^−1
same,1/τoff Mean,[2]; [6],3.11E−04 ms^−1
same,1/τon Mean,[2]; [6],2.2E−04 ms^−1
same,1/τoff Mean,[2]; [7],2.9E−04 ms^−1
same,1/τon Mean,[2]; [7],3.07E−04 ms^−1
same,1/τoff Mean,"[2]; −40 mV, L-Sorbose 5 mM in cis",5.01E−04 ms^−1
same,1/τon Mean,"[2]; −40 mV, L-Sorbose 5 mM in cis",7.6E−04 ms^−1
